Data on 3 compounds can be found in patent US7208520B2, “Crystals of hydroxynorephedrine derivative” (Kissei Pharmaceutical Co., Ltd., priority 2001, dated 2007).

The series can be described thus: Stability test: storage at 60° C., residual percentage by HPLC and changes in appearance. The format is physicochemical. The following applies: for Residual percentage: determined by HPLC. As to the method:
Stability test was carried out under a condition of storage at 60° C. for crystalline form A obtained in Example 2, crystalline form B obtained in Example 3 and the amorphous form of compound (II) obtained in Reference Example 1. The residual percentage of test substances was determined by HPLC, and the changes in appearance were observed.

Where [1] appears, read: storage at 60° C., 7 days, hydrochloride.

Consider `CCOC(=O)COc1cc(C)c(CCN[C@@H](C)[C@H](O)c2ccc(O)cc2)cc1C.Cl` [Example 3, Crystalline form B of ethyl (−)-2-[4-[2-[[(1S,2R)-2-hydroxy-2-(4-hydroxyphenyl)-1-methyethyl]amino]ethyl]-2,5-dimethylphenoxy]acetate hydrochloride], for which the Changes in appearance entry (storage at 60° C.) is on record as “no changes in appearance”. The Appearance entry reads like this: (storage at 60° C., 7 days) “white”; (storage period: Initial) “white”. This compound also returned a Residual percentage under setting [1] of 99.9 and a Residual percentage (storage period: Initial) of 100.
As for `CCOC(=O)COc1cc(C)c(CCN[C@@H](C)[C@H](O)c2ccc(O)cc2)cc1C` [compound 1, Ethyl (−)-2-[4-[2-[[(1S,2R)-2-hydroxy-2-(4-hydroxyphenyl)-1-methyethyl]amino]ethyl]-2,5-dimethylphenoxy]acetate, reference compound], for the setting “storage at 60° C., 7 days”, the Appearance result is listed as “tannish” and the Residual percentage was found to be 40.0. Further, for the setting “storage period: Initial”, the Appearance result was “Color-” and the Residual percentage is 100.
As for `CCOC(=O)COc1cc(C)c(CCN[C@@H](C)[C@H](O)c2ccc(O)cc2)cc1C.Cl` [Example 2, Crystalline form A of ethyl (−)-2-[4-[2-[[(1S,2R)-2-hydroxy-2-(4-hydroxyphenyl)-1-methyethyl]amino]ethyl]-2,5-dimethylphenoxy]acetate hydrochloride], under “storage at 60° C.”, the Changes in appearance result is listed as “no changes in appearance”. The Appearance result by setting is: (storage at 60° C., 7 days) “white”; (storage period: Initial) “white”. The Residual percentage under setting [1] is 100 and the Residual percentage (storage period: Initial) came out at 100.
